Test results as given in patent US12357668B2, “Anticancer activity of Buddleja saligna compositions” (University of Pretoria, priority 2019, dated 2025).
≈ marks a conversion by molar mass, not a printed value. Numbered stars: 1 amine (or outer) side, 2 acyl side, 3 side chain; on linkers, the order of the positions; unused ones are H or OH. Bridge positions count the residues as written; N and C are the ends. Square brackets hold non-standard residues; d marks the D form. Peptide text beside a SMILES is read from it. I, II: the chains in the order shown. Actinocin(9to1) = Cc1c2oc3c(C)ccc(C(=O)[*:1])c3nc-2c(C(=O)[*:2])c(N)c1=O; NMeV = CN[C@H](C(=O)O)C(C)C; Sar = CNCC(=O)O

Tests used:
UCT-MEL-1 cells [1] = assay: Light microscopy (haematoxylin and eosin staining), cell morphology; type: cell-based, human; conditions: 0.025 μg/ml, 48 h
Method: (§1) One of the hallmarks of cancer cells is their ability to evade apoptosis, therefore providing a suitable target for the destruction of cancer cells. The effect of B. saligna and DT-BS-01 on the morphology of UCT-MEL-1 and HaCat cells was determined using light microscopy. Light microscopy (haematoxylin and eosin staining) was used to determine the qualitative effect B. saligna (30 and 60 μg/ml) and DT-BS-01 (5 and 20 μg/ml) on the morphology of UCT-MEL-1 and HaCat cells. […] Exponentially growing UCT-MEL-1 and HaCat cells were seeded at 1.0×10^5 cells per well in a 6-well plate and incubated for 24 h at 37° C. at 5% CO2 to allow for cell adherence. […] Cells were stained (in the 6-well plate) as described by Berrington & Lall (2012). After staining, sterile PBS was added to all the wells and immediately analysed for morphological changes using a light microscope (Zeiss Primovert).
(§2) Light microscopy was performed in order to determine whether cell death, induced by B. saligna and the DT-BS-01 was mediated through apoptosis (FIG. 2 and FIG. 3). Apoptosis is described as a programmed cell death in which biochemical and morphological changes occur within the cells. […]

HaCat cells [2] = assay: as above; type: cell-based, human; conditions: 0.025 μg/ml, 48 h
Method: as §1, §2

UCT-MEL-1 cells [3] = assay: Flow cytometry apoptosis detection (Annexin V / 7-AAD); type: cell-based, human; conditions: 0.025 μg/ml, 48 h
Text: (§3) Phosphatidylserine (PS) is a lipid, which is present in the inner leaflet of the plasma membrane. The early stages of apoptosis are characterized by an asymmetric membrane due to the translocation of the PS lipid from the inner membrane leaflet to the outer leaflet. Once exposed to the outer cellular environment, Annexin V, which has a high affinity for PS, is able to bind to it. After the early stages of apoptosis have taken place, the plasma membrane integrity starts to disintegrate thereby allowing the uptake of 7-AAD into the cell, which is associated with late apoptosis or necrosis. […] Using Annexin V and 7-AAD staining can therefore, not distinguish between late apoptosis or necrosis, however can characterize early apoptosis. The degree of apoptosis was thus measured using the Annexin V-FITC apoptosis detection kit. […] Actinomycin D (0.025 μg/ml) was used as a positive control for apoptosis to occur. Other controls included a medium (untreated) and 0.25% DMSO vehicle control. […] An additional 400 μl binding buffer was added to each culture tube and the fluorescence was measured using an Accuri C6 flow cytometer (BD Biosciences, San Jose, CA, USA). Data from at least 10,000 cells were analyzed using the BD Accuri C6 software.

HaCat cells [4] = assay: as above; type: cell-based, human; conditions: 0.025 μg/ml, 48 h
Text: as §3

[5] = test system: UCT-MEL-1 (human pigmented melanoma) cells; assay: XTT antiproliferative assay, human melanoma cells; type: cell-based; conditions: HaCat versus UCT-MEL-1 IC50
Method: To investigate the antiproliferative potential of B. saligna and DT-BS-01, the XTT assay was performed. Antiproliferative activity was measured using the method as described by Berrington and Lall (2012) using the XTT Cell Proliferation Kit II. Cells were seeded at a concentration of 1.0×10^6 cells/ml in 96-well plates (100 μl) and allowed to adhere for 24 h. The B. saligna extract and DT-BS-01 were prepared at stock concentrations of 20 mg/ml, serially diluted and added to the 96-well plates at final concentrations ranging from 1.56-200 μg/ml. […] Cells were incubated for a further 72 h with the respective samples and controls. […] Blank plates were included which were prepared in the same manner as mentioned above, without the additional of cell, to allow for colour compensation of the samples. The samples were tested in triplicate and the percentage cell viability was calculated using the following equation. […] Where Abscontrol is the absorbance of XTT+vehicle control and Absample is the absorbance of (XTT+sample OR positive control)-(blank values of corresponding sample). […] The XTT colorimetric assay is based on the ability of viable metabolically active cells to convert a yellow tetrazolium salt to an orange formazan dye. […]

[6] = test system: HaCat (human keratinocytes) cells; assay: XTT antiproliferative assay, human keratinocytes; type: cell-based; conditions: 72 h exposure
Method: The cell lines were maintained in culture flasks containing Dulbecco's modified Eagle's medium (DMEM) supplemented with 10%, heat-inactivated fetal bovine serum (FBS) and 100 U/ml penicillin, 100 μg/ml streptomycin and 250 μg/ml fungizone at 37° C. and 5%, CO2. Cells were sub-cultured once an 80%, confluent monolayer had formed using trypsin-EDTA (0.25%, trypsin containing 0.01%, EDTA).
To investigate the antiproliferative potential of B. saligna and DT-BS-01, the XTT assay was performed. Antiproliferative activity was measured using the method as described by Berrington and Lall (2012) using the XTT Cell Proliferation Kit II. […] Thereafter, 50 μl XTT (0.3 mg/ml) was added to the cells and incubated for 2 h where after the absorbance was measured at 490 nm (reference wavelength of 690 nm) using a BIO-TEK power-wave XS plate reader (A.D.P, Weltevreden Park, South Africa). […] The samples were tested in triplicate and the percentage cell viability was calculated using the following equation.
Where Abscontrol is the absorbance of XTT+vehicle control and Absample is the absorbance of (XTT+sample OR positive control)−(blank values of corresponding sample). The fifty percent inhibitory concentrations (IC50) were calculated from the % cell viability using the GraphPad Prism 4 software. […]

SK-MEL-2 melanoma = conditions: SK-MEL-2 CAM model; Caunii et al., 2017; cited from earlier work
in vitro = type: cell-based; conditions: human
Method: (§4) Exponentially growing UCT-MEL-1 and HaCat cells were seeded at a concentration of 1.0×10^5 cells/well in a 24-well plate with complete medium to allow for cell adherence. After 24 h, the medium was removed and replaced with fresh complete medium. Stock concentrations of the B. saligna extract and DT-BS-01 were prepared at 1 mg/ml. The cells were treated with final concentrations of the B. saligna at 30 and 60 μg/ml; and DT-BS-01 at 5 and 20 μg/ml. Controls included a 0.15% DMSO vehicle control, cells grown in medium only and cells exposed to the positive control, ursolic acid at final concentrations of 6 μg/ml. After 6 h of treatment, the plates were centrifuged at 980 rpm for 10 min and the supernatant collected for quantification of VEGF using an ELISA kit (ThermoFisher Scientific, Johannesburg, South Africa) (Thermo Fisher, 2017). The cells viability was further determined using XTT at a final concentration of 0.3 mg/ml. The quantification of VEGF was performed according to the manufacturer's protocol (Novex® Cat #KHG0111) using a VEGF standard curve.
The levels of VEGF secreted by UCT-MEL-1 and HaCat cells were determined after 6 h incubation with B. saligna and DT-BS-01. […] The HaCat cell viability was determined after treatment with the various samples and controls in order to determine whether inhibition of VEGF could have been due to a decrease in cell viability. […]

[7] = test system: vascular endothelial growth factor (VEGF); assay: Quantification of in vitro VEGF in HaCat cells (ELISA); type: cell-based; conditions: Homo sapiens, 6 μg/ml, 6 h, read-out: inhibition of VEGF production
Method: as §4

[8] = Nitric oxide scavenging activity (Griess reaction)
Method: Briefly, 90 μl of distilled water was added to the top row of a 96-well microtitre plate and 50 μl to the rest of the wells in the plate. […] Ethanol was used as the negative control. To each well 50 μl sodium nitroprusside (10 mM) was added and the plates were incubated at room temperature for 90 min. Thereafter, 100 μl Griess reagent was added to all the wells, except for the blank plates where distilled water was added. […] All samples were tested in triplicate. The percentage inhibition of the samples was calculated using the below equation.
Where Abscontrol is the absorbance of NO radical+ethanol control; Absample is the absorbance of (NO radical+sample OR positive control)−(blank values of corresponding sample). The IC50 values for each sample were calculated using GraphPad Prism 4 software.

Cc1c2oc3c(C)ccc(C(=O)N[C@@H]4C(=O)N[C@H](C(C)C)C(=O)N5CCC[C@H]5C(=O)N(C)CC(=O)N(C)[C@@H](C(C)C)C(=O)O[C@@H]4C)c3nc-2c(C(=O)N[C@@H]2C(=O)N[C@H](C(C)C)C(=O)N3CCC[C@H]3C(=O)N(C)CC(=O)N(C)[C@@H](C(C)C)C(=O)O[C@@H]2C)c(N)c1=O [Actinomycin D] (I: T[dV]P[Sar][NMeV] / II: T[dV]P[Sar][NMeV]; ester I:1-I:C, II:1-II:C; linker I:N-II:N via Actinocin(9to1))
cell morphology, UCT-MEL-1 (UCT-MEL-1 cells [1]): displayed characteristic signs of apoptosis
cell morphology, HaCat (HaCat cells [2]): displayed characteristic signs of apoptosis
cells in late apoptosis, UCT-MEL-1 (UCT-MEL-1 cells [3]): 99.2%
cells in late apoptosis, HaCat (HaCat cells [4]): 90.6%
selectivity index (SI) [5]: 3.83
IC50 on HaCat cells [6]: 0.0092 ± 6.88e-05 µg/mL (≈ 7.33 nM)

C[C@H]1[C@H](C)CC[C@]2(C(=O)O)CC[C@]3(C)C(=CC[C@@H]4[C@@]5(C)CC[C@H](O)C(C)(C)[C@@H]5CC[C@]43C)[C@H]12 [ursolic acid]
angiogenic potential / capillary density in CAM (SK-MEL-2 melanoma): did not inhibit the density of the capillaries
viability at 6 h, 6 μg/ml (in vitro): 96 ± 3.62%
inhibition at 6 µg/mL [7]: 16 ± 0.93%

CC1(C)CC[C@]2(C(=O)O)CC[C@]3(C)C(=CC[C@@H]4[C@@]5(C)CC[C@H](O)C(C)(C)[C@@H]5CC[C@]43C)[C@@H]2C1 [oleanolic acid]
angiogenic potential / capillary density in CAM (SK-MEL-2 melanoma): able to reduce the angiogenic potential

O=C1O[C@H]([C@@H](O)CO)C(O)=C1O [ascorbic acid]
NO radical scavenging activity ([8]; 500 μg/ml): 75.70±0.15%
NO IC50 ± SD ([8]; NO radical scavenging): 62.46 ± 0.46 µg/mL
